According to PubChem BioAssay AID1259408 (Genetic Toxicology Data Bank (GENE-TOX), 2018):
Activity calls are given as the source filed them. No rule for the calls is given here.

Test system: GENE-TOX genotoxicity assays, various organisms and cells
Experiment: GENE-TOX mutagenicity studies
Conditions: for call: Assay Type: In vivo carcinogenicity studies, Assay Code: CCG+
[1] = Species/Cell Type: Human, Assay Type: Sister-chromatid exchange (SCE) in vitro, Assay Code: SC1+D, Dose Response: With dose response, Evaluation Type: Evaluation B (Post-1980)
[2] = Species/Cell Type: Salmonella typhimurium (one or more of the five standard strains: TA98, TA100, TA1535, TA1537, and TA1538), Assay Type: Histidine reverse gene mutation, Ames assay, Assay Code: SAL+, Evaluation Type: Evaluation A (Pre-1980)
[3] = Species/Cell Type: Mammalian polychromatic erythrocytes, Assay Type: Micronucleus test, chromosome aberrations, Assay Code: MNTT, Evaluation Type: Evaluation B (Post-1980)
[4] = Species/Cell Type: Salmonella typhimurium (one or more of the five standard strains: TA98, TA100, TA1535, TA1537, and TA1538), Assay Type: Histidine reverse gene mutation, Ames assay, Assay Code: SALT, Evaluation Type: Evaluation A (Pre-1980)
[5] = Species/Cell Type: Saccharomyces cerevisiae, Assay Type: Mitotic recombination or gene conversion, Assay Code: YEC-, Evaluation Type: Evaluation A (Pre-1980)
[6] = Species/Cell Type: Salmonella typhimurium (one or more of the five standard strains: TA98, TA100, TA1535, TA1537, and TA1538), Assay Type: Histidine reverse gene mutation, Ames assay, Assay Code: SAL-, Evaluation Type: Evaluation A (Pre-1980)
[7] = Species/Cell Type: Nonhuman, Evaluation Type: Evaluation A (Pre-1980)
[8] = Species/Cell Type: Nonhuman, Assay Type: Sister-chromatid exchange (SCE) in vitro, Assay Code: SC2+D, Dose Response: With dose response, Evaluation Type: Evaluation B (Post-1980)
[9] = Species/Cell Type: Drosophila melanogaster, Assay Type: Sex-linked recessive lethal gene mutation, Assay Code: SRL+, Evaluation Type: Evaluation A (Pre-1980)

O=Cc1ccco1
mutagenic call (Species/Cell Type: Human lymphocytes, Assay Type: Sister-chromatid exchange (SCE) in vitro, Assay Code: SCL+D, Dose Response: With dose response, Evaluation Type: Evaluation B (Post-1980)): active; positive
mutagenic call [1]: active; positive
mutagenic call [2]: active; positive

CN1CCC=C(C(=O)O)C1
mutagenic call [3]: no conclusion

C[CH2][Hg][Cl]
mutagenic call [3]: no conclusion

Nc1ccc(-c2nc(N3CCOCC3)c3ccccc3n2)s1
mutagenic call [4]: no conclusion

CC1CC2OC(=O)C(C)C2CC2(C)C(O)OC(O)CC12 (stereo not given)
mutagenic call [2]: active; positive

CCOP(=O)(N=C1SCC(C)S1)OCC (stereo not given)
mutagenic call (Species/Cell Type: Hordeum vulgare (barley), Assay Type: Chromosome aberrations, Assay Code: HOC+D, Dose Response: With dose response, Evaluation Type: Evaluation A (Pre-1980)): active; positive

O=c1[nH]c(=O)n([C@H]2C[C@H](O)[C@@H](CO)O2)cc1/C=C/C(F)(F)F
mutagenic call [1]: active; positive

Nc1nncs1
mutagenic call (Species/Cell Type: Drosophila melanogaster, Assay Type: Aneuploidy, sex chromosome gain, chromosome aberrations, Assay Code: DAG+M, Evaluation Type: Evaluation A (Pre-1980)): active; positive
mutagenic call (Species/Cell Type: Drosophila melanogaster, Assay Type: Aneuploidy, whole sex chromosome loss, chromosome aberrations, Assay Code: DAC+M, Evaluation Type: Evaluation A (Pre-1980)): active; positive
mutagenic call (Species/Cell Type: Drosophila melanogaster, Sex: Male, Assay Type: Heritable translocation test, chromosome aberrations, Assay Code: DHTT, Evaluation Type: Evaluation A (Pre-1980)): no conclusion

NC(=O)N(CCC[C@H](N)C(=O)O)N=O
mutagenic call [2]: active; positive

ClCC1OC(CCl)OC(CCl)O1 (stereo not given)
mutagenic call [2]: active; positive

Nc1nc(-c2ccc([N+](=O)[O-])s2)cs1
mutagenic call [2]: active; positive

Nc1cnn(-c2ccccc2)c(=O)c1Cl
mutagenic call [5]: inactive; negative

Cc1c2ccccc2c(CCl)c2ccc3ccccc3c12
mutagenic call [2]: active; positive

O=C1C(c2[nH]c3ccc(S(=O)(=O)O)cc3c2O)=Nc2ccc(S(=O)(=O)O)cc21
mutagenic call (Species/Cell Type: Bacillus subtilis (H17 vs M45), Assay Type: Rec-assay, spot test, DNA effects (bacterial DNA repair), Assay Code: REWT, Evaluation Type: Evaluation A (Pre-1980)): no conclusion
mutagenic call (Species/Cell Type: Bacillus subtilis (H17 vs M45T), Assay Type: Rec-assay, spot test, DNA effects (bacterial DNA repair), Assay Code: REXT, Evaluation Type: Evaluation A (Pre-1980)): no conclusion
mutagenic call [5]: inactive; negative
mutagenic call [6]: inactive; negative

NC(=O)OCCO
mutagenic call (Species/Cell Type: Nonhuman, Assay Type: Sister-chromatid exchange (SCE) in vitro, Assay Code: SC2+*, Activation: With metabolic activation, Evaluation Type: Evaluation B (Post-1980)): active; positive
mutagenic call (Species/Cell Type: Nonhuman, Assay Type: Sister-chromatid exchange (SCE) in vivo, Assay Code: SC3T, Evaluation Type: Evaluation B (Post-1980)): no conclusion

CC(=O)Nc1nc(-c2ccc([N+](=O)[O-])o2)cs1
mutagenic call (Species/Cell Type: Bacillus subtilis (H17 vs M45), Assay Type: Rec-assay, spot test, DNA effects (bacterial DNA repair), Assay Code: REW+, Evaluation Type: Evaluation A (Pre-1980)): active; positive
mutagenic call (Species/Cell Type: Escherichia coli WP2, Assay Type: Tryptophan reverse gene mutation, Assay Code: WP2+, Evaluation Type: Evaluation A (Pre-1980)): active; positive
mutagenic call (Species/Cell Type: Escherichia coli WP2 UVRA, Assay Type: Tryptophan reverse gene mutation, Assay Code: WPU-, Evaluation Type: Evaluation A (Pre-1980)): inactive; negative
call [7]: active; positive
mutagenic call [8]: active; positive
mutagenic call [2]: active; positive

CN=[N+]([O-])Cc1ccc(C(=O)NC(C)C)cc1
mutagenic call (Species/Cell Type: Nonhuman, Assay Type: Sister-chromatid exchange (SCE) in vitro, Assay Code: SC2+, Evaluation Type: Evaluation B (Post-1980)): active; positive

CC(=O)Oc1ccccc1C(=O)O
mutagenic call (Species/Cell Type: Mammalian polychromatic erythrocytes, Assay Type: Micronucleus test, chromosome aberrations, Assay Code: MNTT, Evaluation Type: Evaluation A (Pre-1980)): no conclusion
mutagenic call (Species/Cell Type: Mouse, Sex: Male, Assay Type: Sperm morphology, Assay Code: SPI-, Evaluation Type: Evaluation A (Pre-1980)): inactive; negative

CN(N=O)C(=O)Nc1ccc(F)cc1
mutagenic call [8]: active; positive

O=C(O)c1ccccc1[N+](=O)[O-]
mutagenic call [2]: active; positive

CCN(CCO)CCCNc1c2ccccc2nc2cc3ccccc3cc12
mutagenic call (Species/Cell Type: Chinese hamster ovary (CHO) cells, Assay Type: Forward gene mutation at the HPRT locus, Assay Code: CHOT, Evaluation Type: Evaluation B (Post-1980)): no conclusion

O=NN(CCCl)C(=O)NCCO
mutagenic call [9]: active; positive
mutagenic call (Species/Cell Type: Saccharomyces cerevisiae, Assay Type: Mitotic recombination or gene conversion, Assay Code: YEC+, Evaluation Type: Evaluation A (Pre-1980)): active; positive

O=[N+]([O-])c1ccc(/C=C/c2cnc(N(CO)CO)nn2)o1
call [7]: active; positive

ClC/C=C/CCl
mutagenic call [9]: active; positive

Cc1ccnc2ccccc12
mutagenic call (Species/Cell Type: Salmonella typhimurium (one or more of the five standard strains: TA98, TA100, TA1535, TA1537, and TA1538), Assay Type: Histidine reverse gene mutation, Ames assay, Assay Code: SAL+*, Activation: With metabolic activation, Evaluation Type: Evaluation A (Pre-1980)): active; positive

CCCCC/C=C\C/C=C\C/C=C\CCCCC(=O)O
mutagenic call [3]: no conclusion

Cn1c(=O)c(N)c(-c2ccccc2)c2cc(Cl)ccc21
mutagenic call [4]: no conclusion

Cc1cc2c3c(ccc2c2ccccc12)C(=O)CC3
mutagenic call [4]: no conclusion

CO[C@H](C(=O)[C@@H](O)[C@@H](C)O)[C@@H]1Cc2cc3cc(O[C@H]4C[C@@H](O[C@H]5C[C@@H](O)[C@H](O)[C@@H](C)O5)[C@H](O)[C@@H](C)O4)c(C)c(O)c3c(O)c2C(=O)[C@H]1O[C@H]1C[C@@H](O[C@H]2C[C@@H](O[C@H]3C[C@](C)(O)[C@H](O)[C@@H](C)O3)[C@@H](O)[C@@H](C)O2)[C@H](O)[C@@H](C)O1
mutagenic call (Species/Cell Type: Chinese hamster ovary (CHO) cells, Assay Type: Forward gene mutation at the HPRT locus, Assay Code: CHO+, Evaluation Type: Evaluation B (Post-1980)): active; positive

CCN(CCNc1ccc(CO)c2sc3ccccc3c(=O)c12)CC(C)(C)O
mutagenic call (Species/Cell Type: Mouse lymphoma (L5178Y) cells, Assay Type: Forward gene mutation at the thymidine kinase (TK) locus, chromosome aberrations, Assay Code: L51+, Evaluation Type: Evaluation A (Pre-1980)): active; positive

CCN(Cc1cccc(S(=O)(=O)O)c1)c1ccc(C(=C2C=CC(=[N+](CC)Cc3cccc(S(=O)(=O)O)c3)C=C2)c2ccccc2S(=O)(=O)[O-])cc1
mutagenic call (Species/Cell Type: Bacillus subtilis (H17 vs M45), Assay Type: Rec-assay, spot test, DNA effects (bacterial DNA repair), Assay Code: REW-, Evaluation Type: Evaluation A (Pre-1980)): inactive; negative
mutagenic call [6]: inactive; negative

ONc1ncnc2nc[nH]c12
mutagenic call (Species/Cell Type: Neurospora crassa, Assay Type: Forward gene mutation, Assay Code: NEF+, Evaluation Type: Evaluation A (Pre-1980)): active; positive

Clc1ccc(Cl)c(-c2cc(Cl)ccc2Cl)c1
mutagenic call [4]: no conclusion

OC1c2ccccc2-c2cc3ccccc3cc2C1O (stereo not given)
mutagenic call (Species/Cell Type: Chinese hamster lung (V79) cells, Assay Type: Forward gene mutation at the HPRT or ouabain locus, Assay Code: V79-*, Activation: With metabolic activation, Evaluation Type: Evaluation A (Pre-1980)): inactive; negative
mutagenic call (Species/Cell Type: Chinese hamster lung (V79) cells, Assay Type: Forward gene mutation at the HPRT or ouabain locus, Assay Code: V79-, Evaluation Type: Evaluation A (Pre-1980)): inactive; negative
mutagenic call (Species/Cell Type: Drosophila melanogaster, Assay Type: Sex-linked recessive lethal gene mutation, Assay Code: SRLT, Evaluation Type: Evaluation A (Pre-1980)): no conclusion
mutagenic call (Species/Cell Type: Human diploid fibroblasts, Assay Type: Unscheduled DNA synthesis (UDS) in vitro, DNA effects, Assay Code: UDH-, Evaluation Type: Evaluation A (Pre-1980)): inactive; negative
mutagenic call (Species/Cell Type: Mouse prostate cells, Assay Type: Cell transformation, Assay Code: CTM-, Evaluation Type: Evaluation A (Pre-1980)): inactive; negative
mutagenic call (Species/Cell Type: Syrian hamster embryo (SHE) cells, Assay Type: Cell transformation, clonal assay, Assay Code: CTC+, Evaluation Type: Evaluation A (Pre-1980)): active; positive
